In the NIST ThermoML archive (doi:10.1016/j.jct.2008.07.005):
± gives the expanded uncertainty stated by the source.

Legend:
[1] = xn = mol fraction of the nth substance listed; details: 283.15 K; 98.93 kPa; Liquid; x2 = 0

| mass density [1] [kg/m3] | mass density (283.15 K, 101.33 kPa, Liquid) [kg/m3] | mass density (288.15 K, 101.33 kPa, Liquid) [kg/m3] | mass density (293.15 K, 101.33 kPa, Liquid) [kg/m3] | mass density (298.15 K, 101.33 kPa, Liquid) [kg/m3] | mass density (303.15 K, 101.33 kPa, Liquid) [kg/m3] | mass density (308.15 K, 101.33 kPa, Liquid) [kg/m3] | SMILES | other results |
| --- | --- | --- | --- | --- | --- | --- | --- | --- |
| 999.7 ± 1.3 | – | – | – | – | – | – | O [water] + CC(O)CO | – |
| 999.7 ± 1.3 | – | – | – | – | – | – | O [water] + OCCCO | – |
| 999.69 ± 1.3 | – | – | – | – | – | – | O [water] + CCCO | – |
| – | 811.34 ± 1.2 | 807.51 ± 1.1 | 803.65 ± 1.1 | 799.67 ± 1.1 | 795.95 ± 1.2 | 791.57 ± 1.2 | CCCO [propan-1-ol] | – |
| 999.7 ± 1.3 | – | – | – | – | – | – | O [water] + OCC(O)CO | – |
| – | 1056.92 ± 1.7 | 1055.67 ± 1.6 | 1053.64 ± 1.6 | 1050.37 ± 1.7 | 1047.58 ± 1.7 | 1044.25 ± 1.8 | OCCCO [propan-1,3-diol] | – |
| – | 1043.32 ± 1.5 | 1040.45 ± 1.5 | 1036.15 ± 1.4 | 1032.71 ± 1.5 | 1029.62 ± 1.5 | 1025.13 ± 1.6 | CC(O)CO (centres undefined) [1,2-propanediol] | – |
| – | – | – | – | – | – | – | O [water] | mass density (283.15 K, 98.93 kPa, Liquid): 999.7 ± 1.3 kg/m3 |
| – | – | – | – | – | – | – | OCC(O)CO [glycerol] | mass density (283.15 K, 101.33 kPa, Metastable liquid): 1266.31 ± 2.2 kg/m3; mass density (288.15 K, 101.33 kPa, Metastable liquid): 1264.39 ± 2.1 kg/m3; mass density (293.15 K, 101.33 kPa, Metastable liquid): 1262.53 ± 2.1 kg/m3; mass density (298.15 K, 101.33 kPa, Metastable liquid): 1258.73 ± 2.1 kg/m3; mass density (303.15 K, 101.33 kPa, Metastable liquid): 1254.9 ± 2.2 kg/m3; mass density (308.15 K, 101.33 kPa, Metastable liquid): 1252.65 ± 2.2 kg/m3 |
